The structures appear in SMILES notation. Bounds are passed on as bounds.

What is called Ki is the equilibrium dissociation constant of an inhibitor or competing ligand from its target. In general, IC50 refers to the concentration at which inhibition is half-maximal. A lower IC50 goes with higher potency.

One assay deals with T1, Aldehyde dehydrogenase, mitochondrial (Homo sapiens, UniProt P05091).
T1 sequence (P05091 whole entry): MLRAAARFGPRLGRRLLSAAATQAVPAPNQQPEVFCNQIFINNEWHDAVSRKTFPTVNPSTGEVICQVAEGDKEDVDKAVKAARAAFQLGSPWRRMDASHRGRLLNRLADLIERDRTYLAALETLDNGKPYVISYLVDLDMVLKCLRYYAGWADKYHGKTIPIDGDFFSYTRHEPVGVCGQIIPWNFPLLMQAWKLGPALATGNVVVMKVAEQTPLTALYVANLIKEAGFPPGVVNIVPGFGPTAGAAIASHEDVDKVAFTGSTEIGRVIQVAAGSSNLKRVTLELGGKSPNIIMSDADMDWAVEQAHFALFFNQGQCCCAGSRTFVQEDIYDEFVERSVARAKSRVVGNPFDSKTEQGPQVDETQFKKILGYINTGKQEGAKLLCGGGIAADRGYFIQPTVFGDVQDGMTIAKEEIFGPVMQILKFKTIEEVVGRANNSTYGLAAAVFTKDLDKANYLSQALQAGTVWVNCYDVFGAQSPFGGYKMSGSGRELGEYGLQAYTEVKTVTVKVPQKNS
The assay can be described thus: Inhibition of human recombinant ALDH2.
In the case of `COc1cc(O)c2c(=O)c(-c3ccc(O)cc3)coc2c1` [PRUNETIN], the Ki was 450 nM.

Test system in the next assay: not listed separately
Put plainly: Inhibition of hamster liver ALDH2. Further details: species or system Cricetinae.
`CCCCCCOc1ccc2c(=O)c(-c3ccc(O)cc3)coc2c1` showed an IC50 of 1500 nM. The same measure, in the same setting: the same measure for `O=C(O)CCCCCCCCCOc1ccc2c(=O)c(-c3ccc(O)cc3)coc2c1`: 50 nM. As to `O=C(O)CCCCOc1ccc2c(=O)c(-c3ccc(O)cc3)coc2c1`, the IC50 stood at 100 nM. In turn, `CCCCCCCCCCCCOc1ccc2c(=O)c(-c3ccc(O)cc3)coc2c1` had an IC50 of more than 9000 nM.

`O=c1c(-c2ccc(O)cc2)coc2cc(OCCOCCOCCO)ccc12` yielded an IC50 of 40 nM. Still for that read-out and setting: the same measure for `O=C(O)CCCCCCCOc1ccc2c(=O)c(-c3ccc(O)cc3)coc2c1`: 40 nM; for `CCOc1ccc2c(=O)c(-c3ccc(O)cc3)coc2c1`: 80 nM; for `O=C(O)CCCCCCCCCCCOc1ccc2c(=O)c(-c3ccc(O)cc3)coc2c1`: 130 nM. The same measure, in the same setting: under `O=C(O)COc1ccc2c(=O)c(-c3ccc(O)cc3)coc2c1` stands 1200 nM; under `O=c1c(-c2ccc(O)cc2)coc2cc(O)ccc12` [DAIDZEIN], 9000 nM.

Source of the values: ChEMBL document CHEMBL1155835 (J Med Chem, 2008).
